Experimental data published in patent US4861788A, “Antibacterial 1-normon-2-yl-heterocyclic compounds” (Beecham Group plc, priority 1983, dated 1989).
≈ marks a conversion by molar mass, not a printed value. Read-outs that look alike come from different tables or passages of the source.

How the values were obtained:
M. hyopneumoniae Str. 11 = experiment: MIC against Mycoplasma in vitro (Friis broth with agarose); format: cell-based; conditions: Mesomycoplasma hyopneumoniae
M. hyopneumoniae MS 16 = experiment: as above; format: cell-based; conditions: Mesomycoplasma hyopneumoniae, MS16, 144 h
M. hyopneumoniae TAM 6N = experiment: as above; format: cell-based; conditions: Mesomycoplasma hyopneumoniae, TAM6N, 144 h
[1] = tested on: M. hyopneumoniae ATCC 25095; experiment: as above; format: cell-based; conditions: Mesomycoplasma hyopneumoniae, ATCC25095, 144 h
M. hyorhinis ATCC 25021 = experiment: as above; format: cell-based; conditions: Mesomycoplasma hyorhinis, ATCC25021, 144 h
M. bovis NCTC 10131 = experiment: microbe, parasite or virus in culture; format: cell-based; conditions: NCTC10131, 144 h
[2] = tested on: M. bovigenitalium ATCC 14173; experiment: MIC against Mycoplasma in vitro (Friis broth with agarose); format: cell-based; conditions: 144 h
M. gallisepticum S6 = experiment: as above; format: cell-based; conditions: Mycoplasmoides gallisepticum
Bacillus subtilis 6633 = experiment: MIC against human bacteria in vitro (nutrient agar, chocolated horse blood); format: cell-based
Method: (§1) The activity of the normonyl derivaties of the Examples against various bacteria which are important in diseases of humans, was assayed in vitro using serial dilutions in nurient agar with 5% chocolated horse blood.

[3] = tested on: Corynebacterium xerosis 9755; experiment: as above; format: cell-based
Method: as §1

E. coli ESS = experiment: as above; format: cell-based; conditions: Escherichia coli
Method: as §1

E. coli NCTC 10418 = experiment: as above; format: cell-based; conditions: Escherichia coli
Method: as §1

[4] = tested on: Haemophilus influenzae Wy21; experiment: as above; format: cell-based
Method: as §1

K. aerogenes A = experiment: as above; format: cell-based; conditions: Klebsiella aerogenes
Method: as §1

P. mirabilis 889 = experiment: as above; format: cell-based
Method: as §1

[5] = tested on: Pasteurella multocida 1633; experiment: as above; format: cell-based
Method: as §1

[6] = tested on: Ps. aeruginosa NCTC 10662; experiment: as above; format: cell-based; conditions: Pseudomonas aeruginosa
Method: as §1

Sarcina lutea 8340 = experiment: as above; format: cell-based
Method: as §1

Staph. aureus Oxford = experiment: as above; format: cell-based; conditions: Staphylococcus aureus
Method: as §1

Staph. aureus Russell = experiment: as above; format: cell-based; conditions: Staphylococcus aureus
Method: as §1

Staph. aureus W2827 = experiment: as above; format: cell-based; conditions: Staphylococcus aureus
Method: as §1

Strep. agalactiae 2788-B = experiment: as above; format: cell-based; conditions: Streptococcus agalactiae
Method: as §1

Strep. faecalis I = experiment: as above; format: cell-based; conditions: Enterococcus faecalis
Method: as §1

[7] = tested on: Strep. pyogenes R80/421-A; experiment: as above; format: cell-based; conditions: Streptococcus pyogenes
Method: as §1

Strep. spp. 64/848-C = experiment: as above; format: cell-based
Method: as §1

Bord. bronchiseptica B09 = experiment: MIC against veterinary bacteria in vitro (Diagnostic Sensitivity Test Agar); conditions: Bordetella bronchiseptica, B09, 18 h
Method: (§2) The activity of the normonyl derivatives of the Examples against various veterinarily important bacteria, was assayed in vitro using two-fold serial dilutions in Diagnostic Sensitivity Test Agar inoculated with 10^4 organisms.

Past. haemolytica PA5 = experiment: as above; conditions: Mannheimia haemolytica, PA5, 18 h
Method: as §2

[8] = tested on: Erysipelothrix rhusiopathiae NCTC 8163; experiment: as above; conditions: NCTC8163, 18 h
Method: as §2

[9] = tested on: Staph. aureus B4 (pen. resistant); experiment: as above; conditions: Staphylococcus aureus, 18 h
Method: as §2

[10] = tested on: Staph. aureus 152 (pen. sens); experiment: as above; conditions: Staphylococcus aureus, 18 h
Method: as §2

[11] = tested on: Strep. suis (group D) SPS11; experiment: as above; conditions: Streptococcus suis, 18 h
Method: as §2

Strep. dysgalactiae SPD1 = experiment: as above; conditions: Streptococcus dysgalactiae, SPD1, 18 h
Method: as §2

Strep. agalactiae SPA1 = experiment: as above; conditions: Streptococcus agalactiae, SPA1, 18 h
Method: as §2

[12] = M. hyorhinis ATCC 25021, 6 days at 37° C, read-out: MIC
[13] = M. bovigenitalium ATCC 14173, 6 days at 37° C, read-out: MIC
[14] = 144 h, M. gallisepticum S6, 6 days at 37° C, read-out: MIC
[15] = human, Bacillus subtilis 6633, 18 hours at 37° C, read-out: MIC
[16] = human, Corynebacterium xerosis 9755, 18 hours at 37° C, read-out: MIC
[17] = human, E. coli ESS, 18 hours at 37° C, read-out: MIC
[18] = NCTC10418, human, E. coli NCTC 10418, 18 hours at 37° C, read-out: MIC
[19] = human, Haemophilus influenzae Wy21, 18 hours at 37° C, read-out: MIC
[20] = human, K. aerogenes A, 18 hours at 37° C, read-out: MIC
[21] = Proteus mirabilis, human, P. mirabilis 889, 18 hours at 37° C, read-out: MIC
[22] = human, Pasteurella multocida 1633, 18 hours at 37° C, read-out: MIC
[23] = NCTC10662, human, Ps. aeruginosa NCTC 10662, 18 hours at 37° C, read-out: MIC
[24] = Micrococcus luteus, human, Sarcina lutea 8340, 18 hours at 37° C, read-out: MIC
[25] = human, Staph. aureus Oxford, 18 hours at 37° C, read-out: MIC
[26] = human, Staph. aureus Russell, 18 hours at 37° C, read-out: MIC
[27] = human, Staph. aureus W2827, 18 hours at 37° C, read-out: MIC
[28] = human, Strep. agalactiae 2788-B, 18 hours at 37° C, read-out: MIC
[29] = human, Strep. faecalis I, 18 hours at 37° C, read-out: MIC
[30] = human, Strep. pyogenes R80/421-A, 18 hours at 37° C, read-out: MIC
[31] = human, Strep. spp. 64/848-C, 18 hours at 37° C, read-out: MIC

CC(=Cc1nnc(-c2ccc(S(C)(=O)=O)cc2)o1)CC1OCC(CC2OC2C(C)C(C)O)C(O)C1O (stereo not drawn) [Example 4, 2-p-Methylsulphonylphenyl-5-(1-normon-2-yl)-1,3,4-oxadiazole A]
MIC (M. hyopneumoniae Str. 11; 144 h, M. hyopneumoniae Str. 11, 6 days at 37° C, read-out: MIC): 0.25 µg/mL (≈ 0.478 µM) | MIC (M. hyopneumoniae MS 16; M. hyopneumoniae MS 16, 6 days at 37° C, read-out: MIC): 0.1 µg/mL (≈ 0.191 µM) | MIC (M. hyopneumoniae TAM 6N; M. hyopneumoniae TAM 6N, 6 days at 37° C, read-out: MIC): 0.5 µg/mL (≈ 0.957 µM) | MIC ([1]; M. hyopneumoniae ATCC 25095, 6 days at 37° C, read-out: MIC): 0.25 µg/mL (≈ 0.478 µM) | MIC (M. hyorhinis ATCC 25021; [12]): 0.1 µg/mL (≈ 0.191 µM) | MIC (M. bovis NCTC 10131): 0.05 µg/mL (≈ 0.0957 µM) | MIC [2, 13]: 0.25 µg/mL (≈ 0.478 µM) | MIC (M. gallisepticum S6; [14]): > 10 µg/mL | MIC (Bacillus subtilis 6633; [15]): 16 µg/mL (≈ 30.6 µM) | MIC [3, 16]: > 64 µg/mL | MIC (E. coli ESS; [17]): 4 µg/mL (≈ 7.65 µM) | MIC (E. coli NCTC 10418; [18]): > 64 µg/mL | MIC [4, 19]: 1 µg/mL (≈ 1.91 µM) | MIC (K. aerogenes A; [20]): > 64 µg/mL | MIC (P. mirabilis 889; [21]): > 64 µg/mL | MIC [5, 22]: 4 µg/mL (≈ 7.65 µM) | MIC [6, 23]: > 64 µg/mL | MIC (Sarcina lutea 8340; [24]): > 64 µg/mL | MIC (Staph. aureus Oxford; [25]): 8 µg/mL (≈ 15.3 µM) | MIC (Staph. aureus Russell; [26]): 32 µg/mL (≈ 61.2 µM) | MIC (Staph. aureus W2827; [27]): 32 µg/mL (≈ 61.2 µM) | MIC (Strep. agalactiae 2788-B; [28]): 16 µg/mL (≈ 30.6 µM) | MIC (Strep. faecalis I; [29]): > 64 µg/mL | MIC [7, 30]: 16 µg/mL (≈ 30.6 µM) | MIC (Strep. spp. 64/848-C; [31]): 16 µg/mL (≈ 30.6 µM) | MIC (Bord. bronchiseptica B09): 10 µg/mL (≈ 19.1 µM) | MIC (Past. haemolytica PA5): 20 µg/mL (≈ 38.3 µM) | MIC [8]: 40 µg/mL (≈ 76.5 µM) | MIC [9]: 5 µg/mL (≈ 9.57 µM) | MIC [10]: 5 µg/mL (≈ 9.57 µM) | MIC [11]: 80 µg/mL (≈ 153 µM) | MIC (Strep. dysgalactiae SPD1): 10 µg/mL (≈ 19.1 µM) | MIC (Strep. agalactiae SPA1): 10 µg/mL (≈ 19.1 µM)

CC(=Cc1nnc(-c2cccs2)o1)CC1OCC(CC2OC2C(C)C(C)O)C(O)C1O (stereo not drawn) [Example 6, 2-(1-Normon-2-yl)-5-(2-thienyl)-1,3,4-oxadiazole A]
MIC (M. hyopneumoniae Str. 11; STR.11, 144 h): 2.5 µg/mL (≈ 5.55 µM) | MIC (M. hyopneumoniae MS 16): 2.5 µg/mL (≈ 5.55 µM) | MIC (M. hyopneumoniae TAM 6N): 5 µg/mL (≈ 11.1 µM) | MIC [1]: 2.5 µg/mL (≈ 5.55 µM) | MIC (M. hyorhinis ATCC 25021; [12]): 1 µg/mL (≈ 2.22 µM) | MIC (M. bovis NCTC 10131): 0.05 µg/mL (≈ 0.111 µM) | MIC [2, 13]: 0.25 µg/mL (≈ 0.555 µM) | MIC (M. gallisepticum S6; [14]): > 10 µg/mL | MIC (Bacillus subtilis 6633; [15]): 4 µg/mL (≈ 8.88 µM) | MIC [3, 16]: 128 µg/mL (≈ 284 µM) | MIC (E. coli ESS; [17]): 8 µg/mL (≈ 17.8 µM) | MIC (E. coli NCTC 10418; [18]): > 128 µg/mL | MIC [4, 19]: 2 µg/mL (≈ 4.44 µM) | MIC (K. aerogenes A; [20]): > 128 µg/mL | MIC (P. mirabilis 889; [21]): > 128 µg/mL | MIC [5, 22]: 2 µg/mL (≈ 4.44 µM) | MIC [6, 23]: > 128 µg/mL | MIC (Sarcina lutea 8340; [24]): 32 µg/mL (≈ 71 µM) | MIC (Staph. aureus Oxford; [25]): 8 µg/mL (≈ 17.8 µM) | MIC (Staph. aureus Russell; [26]): 16 µg/mL (≈ 35.5 µM) | MIC (Staph. aureus W2827; [27]): 16 µg/mL (≈ 35.5 µM) | MIC (Strep. agalactiae 2788-B; [28]): 32 µg/mL (≈ 71 µM) | MIC (Strep. faecalis I; [29]): > 128 µg/mL | MIC [7, 30]: 16 µg/mL (≈ 35.5 µM) | MIC (Strep. spp. 64/848-C; [31]): 32 µg/mL (≈ 71 µM) | MIC (Bord. bronchiseptica B09): 80 µg/mL (≈ 178 µM) | MIC (Past. haemolytica PA5): 20 µg/mL (≈ 44.4 µM) | MIC [8]: 80 µg/mL (≈ 178 µM) | MIC [9]: 2.5 µg/mL (≈ 5.55 µM) | MIC [10]: 5 µg/mL (≈ 11.1 µM) | MIC [11]: 80 µg/mL (≈ 178 µM) | MIC (Strep. dysgalactiae SPD1): 40 µg/mL (≈ 88.8 µM) | MIC (Strep. agalactiae SPA1): 40 µg/mL (≈ 88.8 µM)

CC(=CC(=O)NN)CC1OCC(CC2OC2C(C)C(C)O)C(O)C1O (stereo not drawn) [Example 9, Monohydrazide A]
MIC (M. hyopneumoniae Str. 11; STR.11, 144 h): 5 µg/mL (≈ 13.9 µM) | MIC (M. hyopneumoniae MS 16): 5 µg/mL (≈ 13.9 µM) | MIC (M. hyopneumoniae TAM 6N): 10 µg/mL (≈ 27.9 µM) | MIC [1]: 5 µg/mL (≈ 13.9 µM) | MIC (M. hyorhinis ATCC 25021): 10 µg/mL (≈ 27.9 µM) | MIC (M. bovis NCTC 10131): 0.5 µg/mL (≈ 1.39 µM) | MIC [2]: 0.5 µg/mL (≈ 1.39 µM) | MIC (M. gallisepticum S6; S6, 144 h): > 10 µg/mL | MIC (Bacillus subtilis 6633; Bacillus subtilis, 6633, 18 h): ≥ 100 µg/mL | MIC ([3]; Corynebacterium xerosis, 9755, 18 h): > 100 µg/mL | MIC (E. coli ESS; 18 h): ≥ 100 µg/mL | MIC (E. coli NCTC 10418; NCTC10418, 18 h): > 100 µg/mL | MIC ([4]; Haemophilus influenzae, WY21, 18 h): 2.5 µg/mL (≈ 6.97 µM) | MIC (K. aerogenes A; 18 h): > 100 µg/mL | MIC (P. mirabilis 889; Proteus mirabilis, 889, 18 h): ≥ 100 µg/mL | MIC ([5]; Pasteurella multocida, 1633, 18 h): 10 µg/mL (≈ 27.9 µM) | MIC ([6]; NCTC10662, 18 h): > 100 µg/mL | MIC (Sarcina lutea 8340; Micrococcus luteus, 8340, 18 h): > 100 µg/mL | MIC (Staph. aureus Oxford; 18 h): 100 µg/mL (≈ 279 µM) | MIC (Staph. aureus Russell; 18 h): ≥ 100 µg/mL | MIC (Staph. aureus W2827; W2827, 18 h): ≥ 100 µg/mL | MIC (Strep. agalactiae 2788-B; 2788B, 18 h): ≥ 100 µg/mL | MIC (Strep. faecalis I; 18 h): > 100 µg/mL | MIC ([7]; R80/421A, 18 h): 100 µg/mL (≈ 279 µM) | MIC (Strep. spp. 64/848-C; 18 h): ≥ 100 µg/mL | MIC (Bord. bronchiseptica B09): > 80 µg/mL | MIC (Past. haemolytica PA5): 40 µg/mL (≈ 112 µM) | MIC [8]: > 80 µg/mL | MIC [9]: 80 µg/mL (≈ 223 µM) | MIC [10]: 80 µg/mL (≈ 223 µM) | MIC [11]: > 80 µg/mL | MIC (Strep. dysgalactiae SPD1): > 80 µg/mL | MIC (Strep. agalactiae SPA1): > 80 µg/mL
